Values of other authors, collected in patent US20110118360A1, “AGENT FOR ACTIVATING STEM CELLS” (priority 2008, published 2011).

B1: Filgastrim: glycoprotein consisting of 175 amino acids obtained by expression of a human gene in E. coli (protein, chains of the INN, looked up)
chain: MTPLGPASSLPQSFLLKCLEQVRKIQGDGAALQEKLCATYKLCHPEELVLLGHSLGIPWAPLSSCPSQALQLAGCLSQLHSGLFLYQGLLQALEGISPELGPTLDTLQLDVADFATTIWQQMEELGMAPALQPTQGAMPAFASAFQRRAGGVLVASHLQSFLEVSYRVLRHLAQP
modifications: N-terminal methionine, E. coli expressed
notes: glycoprotein consisting of 175 amino acids obtained by expression of a human gene in E. coli

Experiments:
neutrophils = conditions: shortened from 5

Molecule	effect on mesenchymal stem cells (mesenchymal stem cells)	effect on 26S proteasome activity (26S proteasome)	maturation period of neutrophils from the progenitor cells (neutrophils)
CC(C)C[C@H](NC(=O)[C@H](Cc1ccccc1)NC(=O)c1cnccn1)B(O)O [bortesomib, [(1R)-3-methyl-1 [[(2S)-1-oxo-3-phenyl-2-[(pirasinilcarbonil)amino]propyl]amino]butyl]]	direct pharmacological effect on mesenchymal stem cells	highly selective reversible inhibitor	
B1			1 days
